The results in this text go back to patent US11572590B2, “Methods for evaluating tumor cell spheroids using 3D microfluidic cell culture device” (Dana-Farber Cancer Institute, Inc., priority 2017, dated 2023).

Each structure is given as a SMILES string. Where two headings read alike, the source gives them in different places.

Assay [1] deals with off-target kinases (Homo sapiens, UniProt P07948). The assay is described as follows: SelectScreen Kinase Profiling, single point inhibition and IC50 for off-target kinases. It counts as biochemical. More on the design: other: LYN B; 1000 μM; ATP Km app; ZLYTE. The note with it: LYN B, ATP Km app, ZLYTE. As to the method: (§1) Biochemical single point inhibition and IC50 concentrations for TBK1, IKKε (IKBKE), and off-target kinases were determined at ThermoFisher Scientific using SelectScreen Kinase Profiling Services (Madison, Wis., USA) (Tables S4A and S4B-1-7). To determine cellular potency, the human colorectal cancer carcinoma cell line HCT116 (ATCC, Manassas, Va.) was maintained in T175 flasks in complete RPMI medium; RPMI 1640 supplemented with 10% FBS, 1× Penicillin-Streptomycin solution and 1×MEM (non-essential amino acids). HCT116 cells were grown to 90-95% confluency in T175 flasks containing complete RPMI medium and transfected in bulk using Lipofectamine 2000 (Invitrogen, Carlsbad, Calif.) with 70 μg of ISG54-luciferase reporter plasmid (Elim Biopharmaceuticals Inc., Hayward, Calif.). The reporter plasmid contains a luciferase gene expression cassette under the transcriptional regulation of the promoter of the human interferon stimulated gene 54 (ISG54). Transfection of the cells was allowed to take place for 6 hours, after which the cells were harvested by treatment with 0.25% trypsin EDTA (Corning Inc., Corning, N.Y.). Trypsinized cells were added to 384-well poly-d-lysine treated black clear bottom tissue culture assay plates (Greiner Bio-One GmbH, Kremsmünster, Austria) at a density of 20,000 cells/well in 80 μL of complete RPMI medium and incubated overnight. After 16-18 hours post-transfection, the assay plates were washed with PBS (Corning Inc., Corning, N.Y.), followed by addition of 80 μL/well of serum-free RPMI 1640 medium containing 1× Penicillin-Streptomycin solution, 1×MEM and 350 nL of DMSO or titrations of Compound 1. […] The assay plates were incubated for 5 hours at 37° C., followed by addition of One-Glo luciferase firefly reagent (Promega, Madison, Wis.) at 1:1 volume/well and luminescence was measured in an EnVision Multilabel Plate Reader (PerkinElmer, Santa Clara, Calif.). The EC50 values were calculated from the fit of the dose-response curves to a four-parameter equation. […]
Sequence of off-target kinases (Homo sapiens, UniProt P07948) (P07948 1-491 isoform P07948-2): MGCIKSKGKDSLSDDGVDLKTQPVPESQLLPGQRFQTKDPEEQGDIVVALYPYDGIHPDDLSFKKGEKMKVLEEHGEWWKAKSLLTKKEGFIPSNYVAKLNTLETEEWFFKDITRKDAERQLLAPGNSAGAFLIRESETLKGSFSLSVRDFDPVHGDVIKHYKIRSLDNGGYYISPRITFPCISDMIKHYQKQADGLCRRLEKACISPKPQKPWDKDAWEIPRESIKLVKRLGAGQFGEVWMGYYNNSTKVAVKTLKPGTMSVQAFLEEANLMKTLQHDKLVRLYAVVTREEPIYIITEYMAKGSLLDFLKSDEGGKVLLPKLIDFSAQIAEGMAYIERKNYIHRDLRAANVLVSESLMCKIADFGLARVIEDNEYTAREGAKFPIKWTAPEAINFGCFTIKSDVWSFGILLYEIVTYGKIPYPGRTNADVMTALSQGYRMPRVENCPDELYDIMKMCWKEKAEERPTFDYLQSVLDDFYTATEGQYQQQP

The test system of another assay is B16F10 MDOTS. The experiment in a line: Live/dead (AO/PI) imaging of B16F10 MDOTS in 3D microfluidic culture. It counts as cell-based, murine. The following applies: Cmpd1 (1 μM) + αPD-1, 6 days. The protocol: Fresh tumor specimens (murine and human patients) were received in media (DMEM) on ice and minced in a 10 cm dish (on ice) using sterile forceps and scalpel. Minced tumor was resuspended in DMEM ([…], […] sodium pyruvate, 1:100 penicillin-streptomycin) (Corning CellGro, Manassas, Va.) +10% FBS (Gemini Bio-Products, West Sacramento, Calif.), 100 U/mL collagenase type IV (Life Technologies, Carlsbad, Calif.), and 15 mM HEPES (Life Technologies, Carlsbad, Calif.), except for CT26 tumors that were prepared in RPMI. Samples were pelleted and resuspended in 10-20 mL media. Red blood cells were removed from visibly bloody samples using RBC Lysis Buffer (Boston Bio-Products, Ashland, Mass.). […]
Dual labeling was performed by loading microfluidic device with Nexcelom ViaStain™ AO/PI Staining Solution (Nexcelom, CS2-0106). Following incubation with the dyes (20 minutes at room temperature in the dark), images were captured on a Nikon Eclipse 80i fluorescence microscope equipped with Z-stack (Prior) and CoolSNAP CCD camera (Roper Scientific). […] Live and dead cell quantitation was performed by measuring total cell area of each dye. […]

Assay [2] addresses off-target kinases (Homo sapiens, UniProt P00533, DEL746-750). The assay is described as follows: SelectScreen Kinase Profiling, single point inhibition and IC50 for off-target kinases. More on the design: other: EGFR (ErbB1) d746-750; mutant y; 1000 μM. It counts as biochemical. The following applies: EGFR (ErbB1) d746-750, mutant y, LanthaScreen Binding. As to the method:
as §1, with “(ISG54).” for “(ISG54). Transfection of the cells was allowed to take place for 6 hours, after which the cells were harvested by treatment with 0.25% trypsin EDTA (Corning Inc., Corning, N.Y.). Trypsinized cells were added to 384-well poly-d-lysine treated black clear bottom tissue culture assay plates (Greiner Bio-One GmbH, Kremsmünster, Austria) at a density of 20,000 cells/well in 80 μL of complete RPMI medium and incubated overnight. After 16-18 hours post-transfection, the assay plates were washed with PBS (Corning Inc., Corning, N.Y.), followed by addition of 80 μL/well of serum-free RPMI 1640 medium containing 1× Penicillin-Streptomycin solution, 1×MEM and 350 nL of DMSO or titrations of Compound 1.”

Sequence of off-target kinases (Homo sapiens, UniProt P00533, DEL746-750) (P00533 with tags, fused parts or gaps DEL746-750): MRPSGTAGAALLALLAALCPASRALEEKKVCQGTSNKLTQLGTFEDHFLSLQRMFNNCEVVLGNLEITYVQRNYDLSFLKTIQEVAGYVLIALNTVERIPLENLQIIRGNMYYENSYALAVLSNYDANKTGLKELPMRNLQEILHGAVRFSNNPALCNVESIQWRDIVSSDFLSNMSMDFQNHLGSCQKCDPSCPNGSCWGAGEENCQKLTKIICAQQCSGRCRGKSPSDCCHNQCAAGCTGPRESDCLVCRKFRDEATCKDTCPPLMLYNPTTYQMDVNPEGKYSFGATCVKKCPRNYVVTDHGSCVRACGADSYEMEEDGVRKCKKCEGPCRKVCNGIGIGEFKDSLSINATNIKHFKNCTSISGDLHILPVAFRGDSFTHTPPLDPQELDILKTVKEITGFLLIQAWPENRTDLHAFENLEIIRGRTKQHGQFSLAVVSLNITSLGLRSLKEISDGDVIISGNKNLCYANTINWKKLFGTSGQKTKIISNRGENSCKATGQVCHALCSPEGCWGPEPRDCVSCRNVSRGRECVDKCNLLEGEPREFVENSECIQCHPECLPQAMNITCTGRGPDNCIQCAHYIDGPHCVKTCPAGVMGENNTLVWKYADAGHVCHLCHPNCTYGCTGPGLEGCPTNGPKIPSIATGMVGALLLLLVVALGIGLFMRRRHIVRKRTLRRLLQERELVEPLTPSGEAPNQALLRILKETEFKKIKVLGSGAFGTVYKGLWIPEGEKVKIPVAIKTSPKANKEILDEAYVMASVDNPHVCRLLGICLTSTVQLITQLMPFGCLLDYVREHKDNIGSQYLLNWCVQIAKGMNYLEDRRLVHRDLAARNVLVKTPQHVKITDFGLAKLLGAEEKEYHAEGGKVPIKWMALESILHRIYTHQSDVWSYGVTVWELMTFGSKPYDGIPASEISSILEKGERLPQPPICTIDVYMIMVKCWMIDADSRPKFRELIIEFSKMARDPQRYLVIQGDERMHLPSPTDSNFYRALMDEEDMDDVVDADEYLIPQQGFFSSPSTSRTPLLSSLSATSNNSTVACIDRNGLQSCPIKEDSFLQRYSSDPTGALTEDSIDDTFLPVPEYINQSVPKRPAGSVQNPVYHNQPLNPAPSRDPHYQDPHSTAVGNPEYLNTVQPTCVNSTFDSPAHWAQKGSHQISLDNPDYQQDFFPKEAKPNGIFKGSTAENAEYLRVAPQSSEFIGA

Turning to `N#Cc1cc(-c2ncnc(Nc3ccc(N4CCN(C5COC5)CC4)cc3)n2)ccc1OC1CCOCC1` [Compound 1, 5-(4-((4-(4-(oxetan-3-yl)piperazin-1-yl)phenyl)amino)-1,3,5-triazin-2-yl)-2-((tetrahydro-2H-pyran-4-yl)oxy)benzonitrile], the inhibition was found to be 56% at off-target kinases [1] (read-out: % Inhibition 1); 50% on off-target kinases [1] (read-out: % Inhibition 2); 53% at off-target kinases [1] (read-out: % Inhibition Avg); 14% on off-target kinases [2] (read-out: % Inhibition 1); 13% on off-target kinases [2] (read-out: % Inhibition 2). Besides, in the assay on B16F10 MDOTS, the “sensitization of B16F10 MDOTS to PD-1 blockade (live/dead)” value is listed as “could not be sensitized”.
